Test results reported in patent US5200409A, “Composition and use of substituted 1,3-dithiolo-and 1,4-dithiinoquinoxalines as an antimicrobial” (The Dow Chemical Company, priority 1992, dated 1993).
Values after ≈ are worked out from the molar mass of the structure shown. Read-outs that look alike come from different tables or passages of the source.

How the values were obtained:
Bacillus subtilis (Bs) = test: Minimum inhibitory concentration (MIC) in nutrient agar; type: cell-based, Bacillus subtilis ATCC 8473
Protocol: (§1) The minimum inhibitory concentration (MIC) for the compounds listed in Table I is determined for 9 bacteria, using nutrient agar: and 7 yeast and fungi, using malt yeast agar. A one percent solution of the test compound is prepared in a mixture of acetone and water. Nutrient agar is prepared at pH 6.8, representing a neutral medium, and at pH 8.2, representing an alkaline medium. The nutrient agars are prepared by adding 23 g of nutrient agar to one-liter of deionized water. In addition, the alkaline medium is prepared by adjusting a 0.04M solution of N-[tris-(hydroxymethyl)methyl]-glycine buffered deionized water with concentrated sodium hydroxide to a pH of […]. Malt yeast agar is prepared by adding 3 g yeast extract and 45 g malt agar per liter of deionized water. The specific agar is dispensed in 30 ml aliquots into 25×200 mm test tubes, capped and autoclaved for 15 minutes at 115° C. The test tubes containing the agar are cooled in a water bath until the temperature of the agar is 48° C. Then, an appropriate amount of the one percent solution of the test compound is added (except in the controls where no compound is added) to the respective test tubes so that the final concentrations are 500, 250, 100, 50, 25, 10, 5, 2.5, 1.0 and zero parts per million of the test compound in the agar, thus having a known concentration of test compound dispersed therein. The contents of the test tubes are then transferred to respective petri plates. After drying for 24 hours, the petri plates containing nutrient agar are inoculated with bacteria and those containing malt yeast agar are inoculated with yeast and fungi.
(§2) The inoculation with bacteria is accomplished by using the following procedure. Twenty-four hour-cultures of each of the bacteria are prepared by incubating the respective bacteria in tubes containing nutrient broth for 24 hours at 30° C. in a shaker. Dilutions of each of the 24 hour-cultures are made so that nine separate suspensions (one for each of the nine test bacteria) are made, each containing 10^8 colony forming units (CFU) per ml of suspension of a particular bacteria. Aliquots of 0.3 ml of each of the bacterial suspensions are used to fill the individual wells of Steer's Replicator. For each microbial suspension, 0.3 ml was used to fill three wells (i.e., three wells of 0.3 ml each) so that for the nine different bacteria, 27 wells are filled. The Steer's Replicator is then used to inoculate both the neutral and alkaline pH nutrient agar petri plates.
(§3) The inoculated petri plates are incubated at 30° C. for 48 hours and then read to determine if the test compound which is incorporated into the agar prevented growth of the respective bacteria.
(§4) Table II lists the bacteria, yeast and fungi used in the MIC test described above along with their respective American Type Culture Collection (ATCC) identification numbers.

[1] = test system: Enterobacter aerogenes (Ea); test: as above; type: cell-based, Enterobacter aerogenes ATCC 13048; conditions: Klebsiella aerogenes, 48 h
Protocol: as §1, §2, §3, §4

Escherichia coli (Ec) = test: as above; type: cell-based, Escherichia coli ATCC 11229; conditions: 48 h
Protocol: as §1, §2, §3, §4

[2] = test system: Klebsiella pneumoniae (Kp); test: as above; type: cell-based, Klebsiella pneumoniae ATCC 8308
Protocol: as §1, §2, §3, §4

Proteus vulgaris (Pv) = test: as above; type: cell-based, Proteus vulgaris ATCC 881; conditions: 48 h
Protocol: as §1, §2, §3, §4

[3] = test system: Pseudomonas aeruginosa (PRD-10); test: as above; type: cell-based, Pseudomonas aeruginosa ATCC 15442; conditions: 48 h
Protocol: as §1, §2, §3, §4

[4] = test system: Pseudomonas aeruginosa (Pa); test: as above; type: cell-based, Pseudomonas aeruginosa ATCC 10145; conditions: 48 hours
Protocol: as §1, §2, §3, §4

[5] = test system: Salmonella choleraesuis (Sc); test: as above; type: cell-based, Salmonella choleraesuis ATCC 10708; conditions: Salmonella enterica, 48 h
Protocol: as §1, §2, §3, §4

[6] = test system: Staphylococcus aureus (Sa); test: as above; type: cell-based, Staphylococcus aureus ATCC 6538
Protocol: as §1, §2, §3, §4

Candida albicans (Ca) = test: Minimum inhibitory concentration (MIC) in malt yeast agar; type: cell-based, Candida albicans ATCC 10231; conditions: malt yeast agar; 30° C.; 48 hours for yeast; read-out: Minimum Inhibitory Concentration, Ca
Protocol: as §1
(§5) The inoculation with the yeast and fungi is accomplished as follows. Cultures of yeast and fungi are incubated for seven days on malt yeast agar at 30° C. These cultures are used to prepare suspensions by the following procedure. A suspension of each organism is prepared by adding 10 ml of sterile saline and 10 microliters of octylphenoxy polyethoxy ethanol to the agar slant of yeast or fungi. The sterile saline/octylphenoxy polyethoxy ethanol solution is then agitated with a sterile swab to suspend the microorganism grown on the slant. Each resulting suspension is diluted into sterile saline (1 part suspension: 9 parts sterile saline). Aliquots of these dilutions are placed in individual wells of Steer's Replicator and petri plates inoculated as previously described. The petri plates are incubated at 30° C. and read after 48 hours for yeast and 72 hours for fungi.
as §4

[7] = test system: Penicillium chrysogenum (Pc); test: as above; type: cell-based, Penicillium chrysogenum ATCC 9480; conditions: malt yeast agar; 30° C.; 72 hours for fungi; read-out: Minimum Inhibitory Concentration, Pc
Protocol: as §1, §5, §4

[8] = test system: Saccharomyces cerevisiae (Sc); test: as above; type: cell-based, Saccharomyces cerevisiae ATCC 4105; conditions: malt yeast agar, 30° C., 48 hours for yeast, read-out: Minimum Inhibitory Concentration, Sc
Protocol: as §1, §5, §4

Trichoderma viride (Tv) = test: as above; type: cell-based, Trichoderma viride ATCC 8678; conditions: malt yeast agar; 30° C.; 72 hours for fungi; read-out: Minimum Inhibitory Concentration, Tv
Protocol: as §1, §5, §4

[9] = test system: Aureobasidium pullulan (Ap); test: as above; type: cell-based, Aureobasidium pullulan ATCC 16622; conditions: read-out: Minimum Inhibitory Concentration, Ap
Protocol: as §1, §5, §4

Fusarium oxysporum (Fo) = test: as above; type: cell-based, Fusarium oxysporum ATCC 48112; conditions: malt yeast agar; 30° C.; 72 hours for fungi; read-out: Minimum Inhibitory Concentration, Fo
Protocol: as §1, §5, §4

Aspergillus niger (An) = test: as above; type: cell-based, Aspergillus niger ATCC 16404; conditions: malt yeast agar; 30° C.; 72 hours for fungi; read-out: Minimum Inhibitory Concentration, An
Protocol: as §1, §5, §4

[10] = 48 h, pH 6.8, read-out: Minimum Inhibitory Concentration, Bs
[11] = 48 h, pH 8.2, read-out: Minimum Inhibitory Concentration, Bs
[12] = pH 6.8, read-out: Minimum Inhibitory Concentration, Ea
[13] = pH 8.2, read-out: Minimum Inhibitory Concentration, Ea
[14] = pH 6.8, read-out: Minimum Inhibitory Concentration, Ec
[15] = pH 8.2, read-out: Minimum Inhibitory Concentration, Ec
[16] = 48 h, pH 8.2, read-out: Minimum Inhibitory Concentration, Kp
[17] = pH 6.8, nutrient agar, 30° C., 48 hours, read-out: Minimum Inhibitory Concentration, Kp
[18] = pH 6.8, read-out: Minimum Inhibitory Concentration, Pv
[19] = pH 8.2, read-out: Minimum Inhibitory Concentration, Pv
[20] = pH 6.8, read-out: Minimum Inhibitory Concentration, PRD
[21] = pH 8.2, read-out: Minimum Inhibitory Concentration, PRD
[22] = pH 6.8, read-out: Minimum Inhibitory Concentration, Sc
[23] = pH 8.2, read-out: Minimum Inhibitory Concentration, Sc
[24] = 48 h, pH 8.2, read-out: Minimum Inhibitory Concentration, Sa
[25] = pH 6.8, nutrient agar, 30° C., 48 hours, read-out: Minimum Inhibitory Concentration, Sa

| SMILES | MIC (Bacillus subtilis (Bs); [11]) [µg/mL] | MIC [1, 12] [µg/mL] | MIC [1, 13] [µg/mL] | MIC (Escherichia coli (Ec); [14]) [µg/mL] | MIC (Escherichia coli (Ec); [15]) [µg/mL] | MIC [2, 16] [µg/mL] | MIC [2, 17] [µg/mL] | MIC (Proteus vulgaris (Pv); [18]) [µg/mL] | MIC (Proteus vulgaris (Pv); [19]) [µg/mL] | MIC [3, 20] [µg/mL] | MIC [3, 21] [µg/mL] | MIC ([4]; pH 6.8, 30° C.) [µg/mL] | MIC ([4]; pH 8.2, 30° C.) [µg/mL] | MIC [5, 22] [µg/mL] | MIC [5, 23] [µg/mL] | MIC [6, 24] [µg/mL] | MIC (Candida albicans (Ca)) [µg/mL] | MIC [7] [µg/mL] | MIC [8] [µg/mL] | MIC (Trichoderma viride (Tv)) [µg/mL] | other results |
| --- | --- | --- | --- | --- | --- | --- | --- | --- | --- | --- | --- | --- | --- | --- | --- | --- | --- | --- | --- | --- | --- |
| N#CC(C#N)=C1Sc2nc3ccc(C(F)(F)F)cc3nc2S1 [T, 6-trifluoromethyl-1,3-dithiolo-(4,5-b)-quinoxaline-2-ylidene-propanedinitrile] | > 500 | > 500 | > 500 | > 500 | > 500 | > 500 | > 500 | > 500 | > 500 | > 500 | > 500 | > 500 | > 500 | > 500 | > 500 | > 500 | > 500 | 250 (≈ 743 µM) | > 500 | > 500 | MIC (Bacillus subtilis (Bs); [10]): > 500 µg/mL; MIC [6, 25]: > 500 µg/mL; MIC [9]: 250 µg/mL (≈ 743 µM); MIC (Fusarium oxysporum (Fo)): > 500 µg/mL |
| COc1ccc2nc3c(nc2c1)SC(=C(C#N)C#N)S3 [U, 6-Methoxy-1,3-dithiolo-(4,5-b)-quinoxaline-2-ylidene-propanedinitrile] | > 500 | > 500 | > 500 | > 500 | > 500 | > 500 | > 500 | > 500 | > 500 | > 500 | > 500 | > 500 | > 500 | > 500 | > 500 | > 500 | > 500 | > 500 | > 500 | > 500 | MIC (Bacillus subtilis (Bs); [10]): > 500 µg/mL; MIC [6, 25]: > 500 µg/mL; MIC (Aspergillus niger (An)): > 500 µg/mL; MIC (Fusarium oxysporum (Fo)): > 500 µg/mL |
| N#CC1=C(C#N)Sc2nc3cc(C(=O)c4ccccc4)ccc3nc2S1 [V, 7-benzoyl-1,4-dithiino-(2,3-b)-quinoxaline-2,3-dicarbonitrile] | > 500 | > 500 | > 500 | > 500 | > 500 | > 500 | > 500 | > 500 | > 500 | > 500 | > 500 | > 500 | > 500 | > 500 | > 500 | > 500 | 500 (≈ 1340 µM) | 250 (≈ 671 µM) | 500 (≈ 1340 µM) | 500 (≈ 1340 µM) | MIC (Bacillus subtilis (Bs); pH 6.8, nutrient agar, 30° C., 48 hours, read-out: Minimum Inhibitory Concentration, Bs): 50 µg/mL (≈ 134 µM); MIC ([6]; 48 h, pH 6.8, read-out: Minimum Inhibitory Concentration, Sa): 50 µg/mL (≈ 134 µM); MIC [9]: 250 µg/mL (≈ 671 µM); MIC (Fusarium oxysporum (Fo)): 500 µg/mL (≈ 1340 µM) |
